Values of other authors in patent US11818994B2, “Brachiaria endophytes and related methods” (Agriculture Victoria Services PTY LTD, priority 2015, dated 2023).

System: Nitrosomonas spp
Conditions: Subbarao et al. 2009

Substance: brachialactone
- biocidal activity against Nitrosomonas spp: biocidal activity
